Assay results published in ChEMBL document CHEMBL3046898, “Synthesis and characterization of flurbiprofen hydrazide derivatives as potential anti-HCV, anticancer and antimicrobial agents” (2013).
Calls of active or inactive are those of the source. The calls are words filed in the database; no cut-off is given here.

Tests used:
[1] = test system: Micrococcus lylae; assay: Antibacterial activity against Micrococcus lylae at 6.25 to 200 ug/ml after 24 hrs by microwell dilution method; format: functional, organism-based
[2] = test system: Pseudomonas aeruginosa; assay: Antibacterial activity against Pseudomonas aeruginosa at 6.25 to 200 ug/ml after 24 hrs by microwell dilution method; format: functional, organism-based
[3] = test system: Proteus vulgaris; assay: Antibacterial activity against Proteus vulgaris at 6.25 to 200 ug/ml after 24 hrs by microwell dilution method; format: functional, organism-based
[4] = test system: Escherichia coli; assay: Antibacterial activity against Escherichia coli at 6.25 to 200 ug/ml after 24 hrs by microwell dilution method; format: functional, organism-based
[5] = test system: Staphylococcus cohnii; assay: Antibacterial activity against Staphylococcus cohnii at 6.25 to 200 ug/ml after 24 hrs by microwell dilution assay; format: functional, organism-based
[6] = test system: Staphylococcus aureus; assay: Antibacterial activity against Staphylococcus aureus at 6.25 to 200 ug/ml after 24 hrs by microwell dilution assay; format: functional, organism-based
[7] = test system: Micrococcus luteus; assay: Antibacterial activity against Micrococcus luteus at 6.25 to 200 ug/ml after 24 hrs by microwell dilution method; format: functional, organism-based
[8] = test system: Aspergillus; assay: Antifungal activity against Aspergillus at 10 mg/ml after 72 hrs by disc diffusion method; format: functional, organism-based
[9] = test system: Pichia membranifaciens; assay: Antifungal activity against Pichia membranifaciens at 10 mg/ml after 48 hrs by disc diffusion method; format: functional, organism-based
[10] = test system: Kluyveromyces marxianus; assay: Antifungal activity against Kluyveromyces marxianus at 10 mg/ml after 48 hrs by disc diffusion method; format: functional, organism-based
[11] = test system: Schwanniomyces occidentalis; assay: Antifungal activity against Schwanniomyces occidentalis at 10 mg/ml after 48 hrs by disc diffusion method; format: functional, organism-based
[12] = test system: Nakaseomyces glabratus; assay: Antifungal activity against Candida glabrata at 10 mg/ml after 48 hrs by disc diffusion method; format: functional, organism-based
[13] = test system: Candida parapsilosis; assay: Antifungal activity against Candida parapsilosis at 10 mg/ml after 48 hrs by disc diffusion method; format: functional, organism-based
[14] = test system: Candida tropicalis; assay: Antifungal activity against Candida tropicalis at 10 mg/ml after 48 hrs by disc diffusion method; format: functional, organism-based
[15] = test system: Candida albicans; assay: Antifungal activity against Candida albicans at 10 mg/ml after 48 hrs by disc diffusion method; format: functional, organism-based
[16] = test system: Photorhabdus luminescens; assay: Antibacterial activity against Photorhabdus luminescens at 10 mg/ml after 24 hrs by disc diffusion method; format: functional, organism-based
[17] = test system: Klebsiella aerogenes; assay: Antibacterial activity against Enterobacter aerogenes at 6.25 to 200 ug/ml after 24 hrs by microwell dilution method; format: functional, organism-based
[18] = test system: Photorhabdus luminescens; assay: Antibacterial activity against Photorhabdus luminescens at 6.25 to 200 ug/ml after 24 hrs by microwell dilution method; format: functional, organism-based
[19] = test system: Acinetobacter radioresistens; assay: Antibacterial activity against Acinetobacter radioresistens at 6.25 to 200 ug/ml after 24 hrs by microwell dilution method; format: functional, organism-based
[20] = test system: Salmonella paratyphi; assay: Antibacterial activity against Salmonella paratyphi at 6.25 to 200 ug/ml after 24 hrs by microwell dilution method; format: functional, organism-based; conditions: Salmonella enterica subsp. enterica serovar Paratyphi A
[21] = test system: Klebsiella aerogenes; assay: Antibacterial activity against Enterobacter aerogenes at 10 mg/ml after 24 hrs by disc diffusion method; format: functional, organism-based
[22] = test system: Acinetobacter radioresistens; assay: Antibacterial activity against Acinetobacter radioresistens at 10 mg/ml after 24 hrs by disc diffusion method; format: functional, organism-based
[23] = test system: Salmonella paratyphi; assay: Antibacterial activity against Salmonella paratyphi at 10 mg/ml after 24 hrs by disc diffusion method; format: functional, organism-based; conditions: Salmonella enterica subsp. enterica serovar Paratyphi A
[24] = test system: Micrococcus lylae; assay: Antibacterial activity against Micrococcus lylae at 10 mg/ml after 24 hrs by disc diffusion method; format: functional, organism-based
[25] = test system: Pseudomonas aeruginosa; assay: Antibacterial activity against Pseudomonas aeruginosa at 10 mg/ml after 24 hrs by disc diffusion method; format: functional, organism-based
[26] = test system: Escherichia coli; assay: Antibacterial activity against Escherichia coli at 10 mg/ml after 24 hrs by disc diffusion method; format: functional, organism-based
[27] = test system: Proteus vulgaris; assay: Antibacterial activity against Proteus vulgaris at 10 mg/ml after 24 hrs by disc diffusion method; format: functional, organism-based
[28] = test system: Micrococcus luteus; assay: Antibacterial activity against Micrococcus luteus at 10 mg/ml after 24 hrs by disc diffusion method; format: functional, organism-based
[29] = test system: Staphylococcus aureus; assay: Antibacterial activity against Staphylococcus aureus at 10 mg/ml after 24 hrs by disc diffusion method; format: functional
[30] = test system: Staphylococcus cohnii; assay: Antibacterial activity against Staphylococcus cohnii at 10 mg/ml after 24 hrs by disc diffusion method; format: functional
[31] = test system: Hepacivirus hominis; assay: Inhibition of HCV N-terminal His-tagged NS5B RNA dependent RNA polymerase expressed in Escherichia coli DH5alpha using poly rA/U12 as primer at 200 uM after 60 mins by liquid scintillation counting

## CC(C(=O)N/N=C/c1cccc(F)c1)c1ccc(-c2ccccc2)c(F)c1 (configuration not stated)
[1]
  Activity: inactive
[2]
  Activity: inactive
[3]
  Activity: inactive
[4]
  Activity: inactive
[5]
  Activity: inactive
[6]
  Activity: inactive
[7]
  Activity: inactive
[8]
  Activity: inactive
[9]
  Activity: inactive
[10]
  Activity: inactive
[11]
  Activity: inactive
[12]
  Activity: inactive
[13]
  Activity: inactive
[14]
  Activity: inactive
[15]
  Activity: inactive
[16]
  Activity: inactive
[17]
  Activity: inactive
[18]
  Activity: inactive
[19]
  Activity: inactive
[20]
  Activity: inactive
[21]
  Activity: inactive
[22]
  Activity: inactive
[23]
  Activity: inactive
[24]
  Activity: inactive
[25]
  Activity: inactive
[26]
  Activity: inactive
[27]
  Activity: inactive
[28]
  Activity: inactive
[29]
  Activity: inactive
[30]
  Activity: inactive
[31]
  inhibition: 8%

## CC(C(=O)NN1C(=O)CSC1c1ccccc1F)c1ccc(-c2ccccc2)c(F)c1 (configuration not stated)
[1]
  Activity: inactive
[2]
  Activity: inactive
[3]
  Activity: inactive
[4]
  Activity: inactive
[5]
  Activity: inactive
[6]
  Activity: inactive
[7]
  Activity: inactive
[8]
  Activity: inactive
[9]
  Activity: inactive
[10]
  Activity: inactive
[11]
  Activity: inactive
[12]
  Activity: inactive
[13]
  Activity: inactive
[14]
  Activity: inactive
[15]
  Activity: inactive
[16]
  Activity: inactive
[17]
  Activity: inactive
[18]
  Activity: inactive
[19]
  Activity: inactive
[20]
  Activity: inactive
[21]
  Activity: inactive
[22]
  Activity: inactive
[23]
  Activity: inactive
[24]
  Activity: inactive
[25]
  Activity: inactive
[26]
  Activity: inactive
[27]
  Activity: inactive
[28]
  Activity: inactive
[29]
  Activity: inactive
[30]
  Activity: inactive
[31]
  inhibition: 8%

## CC(C(=O)NN1C(=O)CSC1c1cccc(F)c1)c1ccc(-c2ccccc2)c(F)c1 (configuration not stated)
[1]
  Activity: inactive
[2]
  Activity: inactive
[3]
  Activity: inactive
[4]
  Activity: inactive
[5]
  Activity: inactive
[6]
  Activity: inactive
[7]
  Activity: inactive
[8]
  Activity: inactive
[9]
  Activity: inactive
[10]
  Activity: inactive
[11]
  Activity: inactive
[12]
  Activity: inactive
[13]
  Activity: inactive
[14]
  Activity: inactive
[15]
  Activity: inactive
[16]
  Activity: inactive
[17]
  Activity: inactive
[18]
  Activity: inactive
[19]
  Activity: inactive
[20]
  Activity: inactive
[21]
  Activity: inactive
[22]
  Activity: inactive
[23]
  Activity: inactive
[24]
  Activity: inactive
[25]
  Activity: inactive
[26]
  Activity: inactive
[27]
  Activity: inactive
[28]
  Activity: inactive
[29]
  Activity: inactive
[30]
  Activity: inactive
[31]
  inhibition: 8%

## CC(C(=O)N/N=C1\SCC(=O)N1Cc1ccccc1)c1ccc(-c2ccccc2)c(F)c1 (configuration not stated)
[1]
  Activity: inactive
[2]
  Activity: inactive
[3]
  Activity: inactive
[4]
  Activity: inactive
[5]
  Activity: inactive
[6]
  Activity: inactive
[7]
  Activity: inactive
[8]
  Activity: inactive
[9]
  Activity: inactive
[10]
  Activity: inactive
[11]
  Activity: inactive
[12]
  Activity: inactive
[13]
  Activity: inactive
[14]
  Activity: inactive
[15]
  Activity: inactive
[16]
  Activity: inactive
[17]
  Activity: inactive
[18]
  Activity: inactive
[19]
  Activity: inactive
[20]
  Activity: inactive
[21]
  Activity: inactive
[22]
  Activity: inactive
[23]
  Activity: inactive
[24]
  Activity: inactive
[25]
  Activity: inactive
[26]
  Activity: inactive
[27]
  Activity: inactive
[28]
  Activity: inactive
[29]
  Activity: inactive
[30]
  Activity: inactive
[31]
  inhibition: 8%

## CCCNC(=S)NNC(=O)C(C)c1ccc(-c2ccccc2)c(F)c1 (configuration not stated)
[1]
  Activity: inactive
[2]
  Activity: inactive
[3]
  Activity: inactive
[4]
  Activity: inactive
[5]
  Activity: inactive
[6]
  Activity: inactive
[7]
  Activity: inactive
[8]
  Activity: inactive
[9]
  Activity: inactive
[10]
  Activity: inactive
[11]
  Activity: inactive
[12]
  Activity: inactive
[13]
  Activity: inactive
[14]
  Activity: inactive
[15]
  Activity: inactive
[16]
  Activity: inactive
[17]
  Activity: inactive
[18]
  Activity: inactive
[19]
  Activity: inactive
[20]
  Activity: inactive
[21]
  Activity: inactive
[22]
  Activity: inactive
[23]
  Activity: inactive
[24]
  Activity: inactive
[25]
  Activity: inactive
[26]
  Activity: inactive
[27]
  Activity: inactive
[28]
  Activity: inactive
[29]
  Activity: inactive
[30]
  Activity: inactive
[31]
  inhibition: 8%

## CC(C(=O)N/N=C1\SCC(=O)N1C)c1ccc(-c2ccccc2)c(F)c1 (configuration not stated)
[1]
  Activity: inactive
[2]
  Activity: inactive
[3]
  Activity: inactive
[4]
  Activity: inactive
[5]
  Activity: inactive
[6]
  Activity: inactive
[7]
  Activity: inactive
[8]
  Activity: inactive
[9]
  Activity: inactive
[10]
  Activity: inactive
[11]
  Activity: inactive
[12]
  Activity: inactive
[13]
  Activity: inactive
[14]
  Activity: inactive
[15]
  Activity: inactive
[16]
  Activity: inactive
[17]
  Activity: inactive
[18]
  Activity: inactive
[19]
  Activity: inactive
[20]
  Activity: inactive
[21]
  Activity: inactive
[22]
  Activity: inactive
[23]
  Activity: inactive
[24]
  Activity: inactive
[25]
  Activity: inactive
[26]
  Activity: inactive
[27]
  Activity: inactive
[28]
  Activity: inactive
[29]
  Activity: inactive
[30]
  Activity: inactive
[31]
  inhibition: 8%

## C=CCN1C(=O)CS/C1=N\NC(=O)C(C)c1ccc(-c2ccccc2)c(F)c1 (configuration not stated)
[1]
  Activity: inactive
[2]
  Activity: inactive
[3]
  Activity: inactive
[4]
  Activity: inactive
[5]
  Activity: inactive
[6]
  Activity: inactive
[7]
  Activity: inactive
[8]
  Activity: inactive
[9]
  Activity: inactive
[10]
  Activity: inactive
[11]
  Activity: inactive
[12]
  Activity: inactive
[13]
  Activity: inactive
[14]
  Activity: inactive
[15]
  Activity: inactive
[16]
  Activity: inactive
[17]
  Activity: inactive
[18]
  Activity: inactive
[19]
  Activity: inactive
[20]
  Activity: inactive
[21]
  Activity: inactive
[22]
  Activity: inactive
[23]
  Activity: inactive
[24]
  Activity: inactive
[25]
  Activity: inactive
[26]
  Activity: inactive
[27]
  Activity: inactive
[28]
  Activity: inactive
[29]
  Activity: inactive
[30]
  Activity: inactive
[31]
  inhibition: 8%
